Literature values, collected in patent US20090099154A1, “Pharmaceutical Sustained Release Compositions and Processes Thereof” (PANACEA BIOTEC LTD., priority 2005, published 2009).

Tests used:
HSV-2-infected cells = HSV-2-infected cells cultured in vitro
VZV-infected cells = VZV-infected cells cultured in vitro
HSV-1-infected cells = HSV-1-infected cells cultured in vitro

## Penciclovir triphosphate
HSV-2-infected cells
  intracellular half-life: 20 h
VZV-infected cells
  intracellular half-life: 7 h
HSV-1-infected cells
  intracellular half-life: 10 h
